The structures appear in SMILES notation.

For the test, the target named is T1, MAGL (Homo sapiens, UniProt Q99685).
T1 sequence (Q99685 1-303): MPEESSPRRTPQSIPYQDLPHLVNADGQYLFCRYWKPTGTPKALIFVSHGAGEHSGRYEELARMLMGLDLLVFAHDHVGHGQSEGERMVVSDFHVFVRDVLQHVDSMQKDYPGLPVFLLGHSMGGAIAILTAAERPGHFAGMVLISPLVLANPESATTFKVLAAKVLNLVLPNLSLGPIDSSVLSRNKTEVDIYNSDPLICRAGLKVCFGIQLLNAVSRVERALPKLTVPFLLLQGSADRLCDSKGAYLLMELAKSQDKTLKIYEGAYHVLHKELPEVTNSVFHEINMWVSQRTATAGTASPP
Put plainly: 2-AG assay: MAGL inhibitory activity by hydrolysis of 2-arachidonoylglycerol to arachidonic acid, followed by mass spectrometry. The class given is biochemical. The following applies: 15 min preincubation, 30 min reaction at RT, 8 μM 2-arachidonoylglycerol.
On to `O=C1COCC2(CN(C(=O)N3CC4(CCN(Cc5cccc(S(=O)(=O)C(F)(F)F)c5)CC4)C3)C2)N1` [Example 134, 2-[7-(3-triflylbenzyl)-2,7-diazaspiro[3.5]nonane-2-carbonyl]-8-oxa-2,5-diazaspiro[3.5]nonan-6-one], for which the IC50 (as a rule, the concentration at which inhibition is half-maximal) stood at 19.1 nM.
As for `O=C1NC2(CO1)CN(C(=O)N1CC3(CCN(Cc4ccc(C(F)(F)F)cc4F)CC3)C1)C2` [Example 135], the IC50 is 1.01 nM.
The figure for `O=C1CCC2(CN(C(=O)N3CC4(CCN(Cc5cccc(S(=O)(=O)C(F)(F)F)c5)CC4)C3)C2)N1` [Example 136, 2-[7-(3-triflylbenzyl)-2,7-diazaspiro[3.5]nonane-2-carbonyl]-2,5-diazaspiro[3.4]octan-6-one] is 4.66 nM; for `O=C1COCC2(CN(C(=O)N3CC4(CC(Cc5ccc(F)cc5F)C4)C3)C2)N1` [Example 137, 2-[6-(2,4-difluorobenzyl)-2-azaspiro[3.3]heptane-2-carbonyl]-8-oxa-2,5-diazaspiro[3.5]nonan-6-one] it is 0.97 nM; for `O=C1COCC2(CN(C(=O)N3CC4(CC(Cc5cnc(C(F)(F)F)cn5)C4)C3)C2)N1` [Example 138, 2-[6-[[5-(trifluoromethyl)pyrazin-2-yl]methyl]-2-azaspiro[3.3]heptane-2-carbonyl]-8-oxa-2,5-diazaspiro[3.5]nonan-6-one] it is 51 nM.
The figure for `O=C1NC2(CO1)CN(C(=O)N1CC3(CCN(Cc4cccc(S(=O)(=O)C(F)(F)F)c4)CC3)C1)C2` [Example 139, 2-[7-(3-triflylbenzyl)-2,7-diazaspiro[3.5]nonane-2-carbonyl]-7-oxa-2,5-diazaspiro[3.4]octan-6-one] is 0.76 nM.
The figure for `O=C1COCC2(CN(C(=O)N3CC4(CC(OCC5(C(F)(F)F)CC5)C4)C3)C2)N1` [Example 140, 2-[6-[[1-(trifluoromethyl)cyclopro-pyl]methoxy]-2-azaspiro[3.3]heptane-2-carbonyl]-8-oxa-2,5-diazaspiro[3.5]nonan-6-one] is 78.9 nM.
`O=C1COCC2(CN(C(=O)N3CC4(CCN(S(=O)(=O)c5ccc(C(F)(F)F)cc5F)CC4)C3)C2)N1` [Example 141, 2-[7-[2-fluoro-4-(trifluoromethyl)phenyl]sulfonyl-2,7-diazaspiro[3.5]nonane-2-carbonyl]-8-oxa-2,5-diazaspiro[3.5]nonan-6-one] yielded an IC50 of 217 nM.
Next, `O=C1COCC2(CN(C(=O)N3CC4(CC(Cc5cc(F)cc(C(F)(F)F)c5)C4)C3)C2)N1` [Example 142]: 0.45 nM.
`O=C1COCC2(CN(C(=O)N3CC4(CC(Cc5ccc(F)cc5C(F)(F)F)C4)C3)C2)N1` [Example 143] yielded an IC50 of 0.07 nM.
Regarding `O=C1NC2(CCO1)CN(C(=O)N1CC3(CCN(S(=O)(=O)c4ccc(C(F)(F)F)cc4F)CC3)C1)C2` [Example 144, 2-[7-[2-fluoro-4-(trifluoromethyl)phenyl]sulfonyl-2,7-diazaspiro[3.5]nonane-2-carbonyl]-7-oxa-2,5-diazaspiro[3.5]nonan-6-one], the IC50 is 2120 nM.
Next, `O=C1COCC2(CN(C(=O)N3CC4(CC(Cc5ccc(C(F)(F)F)cc5F)C4)C3)C2)N1` [Example 145]: 0.06 nM; `O=C1CCC2(CN(C(=O)N3CC4(CCN(Cc5ccc(C(F)(F)F)cn5)CC4)C3)C2)N1` [Example 146, 2-[7-[[5-(trifluoromethyl)-2-pyridyl]methyl]-2,7-diazaspiro[3.5]nonane-2-carbonyl]-2,5-diazaspiro[3.4]octan-6-one]: 10.9 nM.
The molecule `CS(=O)(=O)c1cc(F)ccc1CC1CC2(C1)CN(C(=O)N1CC3(COCC(=O)N3)C1)C2` [Example 147, 2-[6-(4-fluoro-2-mesyl-benzyl)-2-azaspiro[3.3]heptane-2-carbonyl]-8-oxa-2,5-diazaspiro[3.5]nonan-6-one] showed an IC50 of 23.2 nM.
Next, `O=C1CCC2(CN(C(=O)N3CC4(CCN(Cc5ccc(C(F)(F)F)nc5)CC4)C3)C2)N1` [Example 148, 2-[7-[[6-(trifluoromethyl)-3-pyridyl]methyl]-2,7-diazaspiro[3.5]nonane-2-carbonyl]-2,5-diazaspiro[3.4]octan-6-one]: 123 nM.
Consider `O=C1NC2(CO1)CN(C(=O)N1CC3(CCN(Cc4ccc(C(F)(F)F)cn4)CC3)C1)C2` [Example 149, 2-[7-[[5-(trifluoromethyl)-2-pyridyl]methyl]-2,7-diazaspiro[3.5]nonane-2-carbonyl]-7-oxa-2,5-diazaspiro[3.4]octan-6-one], for which the IC50 was determined as 1.68 nM.
Take `O=C1CCC2(CN(C(=O)N3CC4(CCN(Cc5ccc(C(F)(F)F)cn5)C4)C3)C2)N1` [Example 150, 2-[7-[[5-(trifluoromethyl)-2-pyridyl]methyl]-2,7-diazaspiro[3.4]octane-2-carbonyl]-2,5-diazaspiro[3.4]octan-6-one]: the IC50 was 140 nM.
Molecule `O=C1NC2(CO1)CN(C(=O)N1CC3(CCN(Cc4ccc(C(F)(F)F)nc4)CC3)C1)C2` [Example 151, 2-[7-[[6-(trifluoromethyl)-3-pyridyl]methyl]-2,7-diazaspiro[3.5]nonane-2-carbonyl]-7-oxa-2,5-diazaspiro[3.4]octan-6-one] returned an IC50 of 196 nM.
In turn, `O=C1CCC2(CN(C(=O)N3CC4(CCN(Cc5ccc(C(F)(F)F)nc5)C4)C3)C2)N1` [Example 152, 2-[7-[[6-(trifluoromethyl)-3-pyridyl]methyl]-2,7-diazaspiro[3.4]octane-2-carbonyl]-2,5-diazaspiro[3.4]octan-6-one] displayed a 50% inhibitory concentration (IC50) of 3.07 nM.
Next, `O=C1NC2(CO1)CN(C(=O)N1CC3(CN(Cc4cc(F)cc(F)c4)C3)C1)C2` [Example 153, 2-[6-(3,5-difluorobenzyl)-2,6-diazaspiro[3.3]heptane-2-carbonyl]-7-oxa-2,5-diazaspiro[3.4]octan-6-one]: 4.75 nM; `O=C1NC2(CO1)CN(C(=O)N1CC3(CCN(Cc4ccc(C(F)(F)F)cn4)C3)C1)C2` [Example 154, 2-[7-[[5-(trifluoromethyl)-2-pyridyl]methyl]-2,7-diazaspiro[3.4]octane-2-carbonyl]-7-oxa-2,5-diazaspiro[3.4]octan-6-one]: 4.11 nM.
Next, `O=C1CCC2(CN(C(=O)N3CC4(CCN(Cc5cnc(C(F)(F)F)cn5)C4)C3)C2)N1` [Example 155, 2-[7-[[5-(trifluoromethyl)pyrazin-2-yl]methyl]-2,7-diazaspiro[3.4]octane-2-carbonyl]-2,5-diazaspiro[3.4]octan-6-one]: 237 nM.
For `O=C1NC2(CO1)CN(C(=O)N1CC3(CCN(Cc4ccc(C(F)(F)F)nc4)C3)C1)C2` [Example 156, 2-[7-[[6-(trifluoromethyl)-3-pyridyl]methyl]-2,7-diazaspiro[3.4]octane-2-carbonyl]-7-oxa-2,5-diazaspiro[3.4]octan-6-one], the concentration for half-maximal inhibition (IC50) was determined as 5.07 nM.
Next, `O=C1NC2(CO1)CN(C(=O)N1CC3(CCN(Cc4cnc(C(F)(F)F)cn4)C3)C1)C2` [Example 157, 2-[7-[[5-(trifluoromethyl)pyrazin-2-yl]methyl]-2,7-diazaspiro[3.4]octane-2-carbonyl]-7-oxa-2,5-diazaspiro[3.4]octan-6-one]: 9.86 nM.
The figure for `O=C1NC2(CO1)CN(C(=O)N1CC3(CCN(Cc4ccc(C(F)(F)F)nn4)C3)C1)C2` [Example 158, 2-[7-[[6-(trifluoromethyl)pyrida-zin-3-yl]methyl]-2,7-diazaspiro[3.4]octane-2-carbonyl]-7-oxa-2,5-diazaspiro[3.4]octan-6-one] is 33.9 nM.

(Values after patent publication US20240383904A1, “HETEROCYCLIC COMPOUNDS” (Hoffmann-La Roche Inc., priority 2021, published 2024).)
